The target in this assay is T1, Kv1.5-Kanäle aus dem Menschen (Homo sapiens, UniProt P22460).
T1 construct: expressed in transfected cells; host or cells: Xenopus laevis oocytes injected with in vitro synthesised Kv1.5-coding RNA
As to the kind of experiment: Kv1.5 currents in Xenopus oocytes, two-microelectrode voltage clamp. It counts as cell-based.

The term IC50 denotes the concentration that inhibits the measured activity by half. A low value points to greater potency in that assay.

T1 sequence (P22460 whole entry): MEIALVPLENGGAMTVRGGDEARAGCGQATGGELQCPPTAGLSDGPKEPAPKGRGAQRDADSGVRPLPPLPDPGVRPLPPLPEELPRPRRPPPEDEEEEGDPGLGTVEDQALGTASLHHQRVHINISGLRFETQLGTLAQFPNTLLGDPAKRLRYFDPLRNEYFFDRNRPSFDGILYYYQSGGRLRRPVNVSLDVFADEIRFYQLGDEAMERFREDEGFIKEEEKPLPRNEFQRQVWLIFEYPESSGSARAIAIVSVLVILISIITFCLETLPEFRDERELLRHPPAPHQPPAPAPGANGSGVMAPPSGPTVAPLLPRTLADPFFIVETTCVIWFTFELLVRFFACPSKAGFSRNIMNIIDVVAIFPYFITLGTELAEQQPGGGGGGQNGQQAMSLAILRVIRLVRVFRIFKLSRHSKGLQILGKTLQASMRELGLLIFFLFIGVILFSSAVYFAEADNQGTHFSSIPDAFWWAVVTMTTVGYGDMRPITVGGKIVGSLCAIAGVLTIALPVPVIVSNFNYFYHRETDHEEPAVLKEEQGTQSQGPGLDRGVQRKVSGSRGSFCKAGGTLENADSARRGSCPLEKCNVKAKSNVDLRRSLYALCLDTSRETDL
Description: Kv1.5-Kanäle aus dem Menschen wurden in Xenopus Oozyten expremiert. Hierfür wurden zuerst Oozyten aus Xenopus laevis isoliert und defollikuliert. Anschließend wurde in diese Oozyten in vitro synthetisierte Kv1.5 kodierende RNA injiziert. Nach 1 - 7 Tagen Kv1.5-Proteinexpression wurden an den Oozyten mit der Zwei-Mikroelektroden Voltage-Clamp Technik Kv1.5-Ströme gemessen. Die Kv1.5-Kanäle wurden hierbei in der Regel mit 500 ms dauernden Spannungssprüngen auf 0 mV und 40 mV aktiviert. Das Bad wurde mit einer Lösung der nachfolgenden Zusammensetzung durchspült: NaCl 96 mM, KCl 2 mM, CaCl2 1,8 mM, MgCl2 1 mM, HEPES 5 mM (titriert mit NaOH auf pH 7,4). Diese Experimente wurden bei Raumtemperatur durchgeführt. Zur Datenerhebung und Analyse wurden eingesetzt: Geneclamp Verstärker (Axon Instruments, Foster City, USA) und MacLab D/A-Umwandler und Software (ADInstruments, Castle Hill, Australia). Die erfindungsgemäßen Substanzen wurden getestet, indem sie in unterschiedlichen Konzentrationen der Badlösung zugefügt wurden. Die Effekte der Substanzen wurden als prozentuale Inhibition des Kv1.5-Kontrollstromes berechnet, der erhalten wurde, wenn der Lösung keine Substanz zugesetzt wurde. Die Daten wurden anschließend mit der Hill-Gleichung extrapoliert, um die Hemmkonzentrationen IC50 für die jeweiligen Substanzen zu bestimmen.

Compound `NC(=O)[C@H](Cc1ccccc1)NC(=O)c1ccccc1-c1ccccc1CNS(=O)(=O)c1cccc2cccnc12` [Beispiel 12 l] came in with a half-maximal inhibitory concentration (IC50) of 10.3 µM.

Source of the values: patent EP1222163B1, “2'-SUBSTITUTED 1,1'-BIPHENYL-2-CARBONAMIDES, METHOD FOR THE PRODUCTION THEREOF, USE THEREOF AS A MEDICAMENT AND PHARMACEUTICAL PREPARATIONS CONTAINING SAID COMPOUNDS” (Sanofi-Aventis Deutschland GmbH, priority 1999, dated 2001).
